{"source": "ChEMBL document CHEMBL1201862", "about": "“PubChem BioAssay data set” (2004)", "key": {"Mu-type opioid receptor [1]": {"target": "T1, Mu-type opioid receptor (Homo sapiens, UniProt P35372)", "T1 sequence (P35372 whole entry)": "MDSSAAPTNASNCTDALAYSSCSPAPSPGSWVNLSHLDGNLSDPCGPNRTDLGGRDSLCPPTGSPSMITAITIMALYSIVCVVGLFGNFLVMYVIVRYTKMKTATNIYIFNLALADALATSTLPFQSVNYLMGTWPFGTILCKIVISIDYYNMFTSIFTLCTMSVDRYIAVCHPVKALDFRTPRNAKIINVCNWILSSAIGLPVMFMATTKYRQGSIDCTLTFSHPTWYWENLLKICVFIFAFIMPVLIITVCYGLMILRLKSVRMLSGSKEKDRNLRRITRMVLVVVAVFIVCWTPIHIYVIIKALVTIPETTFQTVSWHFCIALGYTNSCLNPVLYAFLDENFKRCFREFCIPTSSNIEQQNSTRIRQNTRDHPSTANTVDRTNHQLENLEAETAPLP", "test": "mu opioid receptor blockers – image-based, SAR follow-up (AID 2420);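 further: compounds added before stimulation of receptor with agonist DAMGO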", "format": "functional"}, "[2]": {"target": "T2, Kappa-type opioid receptor (Homo sapiens, UniProt P41145)", "T2 sequence (P41145 whole entry)": "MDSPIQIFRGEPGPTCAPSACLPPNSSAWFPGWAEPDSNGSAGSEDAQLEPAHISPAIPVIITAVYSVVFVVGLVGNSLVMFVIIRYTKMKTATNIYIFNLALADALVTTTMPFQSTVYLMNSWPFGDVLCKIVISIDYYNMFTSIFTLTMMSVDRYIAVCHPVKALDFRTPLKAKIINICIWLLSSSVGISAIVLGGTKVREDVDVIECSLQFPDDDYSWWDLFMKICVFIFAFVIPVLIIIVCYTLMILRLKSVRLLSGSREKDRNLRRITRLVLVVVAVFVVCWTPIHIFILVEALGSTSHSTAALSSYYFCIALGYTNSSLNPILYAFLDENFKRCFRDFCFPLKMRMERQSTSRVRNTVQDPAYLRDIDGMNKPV", "test": "kappa opioid receptor blockers, image-based, SAR follow-up (AID 2348)", "format": "functional"}, "Mu-type opioid receptor [3]": {"target": "T1, Mu-type opioid receptor", "test": "mu opioid receptor activators, image-based, SAR follow-up (AID 2352)", "format": "functional"}, "[4]": {"target": "T2, Kappa-type opioid receptor", "test": "kappa opioid receptor activation potency – imaging, image-based, SAR follow-up (AID 2359)", "format": "functional"}, "[5]": {"target": "T3, Delta-type opioid receptor (Homo sapiens, UniProt P41143)", "T3 sequence (P41143 whole entry)": "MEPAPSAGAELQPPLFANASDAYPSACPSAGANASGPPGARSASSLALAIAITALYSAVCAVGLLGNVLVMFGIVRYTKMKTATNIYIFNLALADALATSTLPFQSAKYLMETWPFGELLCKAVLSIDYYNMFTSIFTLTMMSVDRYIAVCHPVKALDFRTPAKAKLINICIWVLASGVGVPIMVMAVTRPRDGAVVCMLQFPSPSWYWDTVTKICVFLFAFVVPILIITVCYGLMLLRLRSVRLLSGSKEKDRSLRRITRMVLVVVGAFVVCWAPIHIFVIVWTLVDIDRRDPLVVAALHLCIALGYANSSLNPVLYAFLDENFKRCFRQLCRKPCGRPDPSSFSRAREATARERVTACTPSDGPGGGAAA", "test": "delta opioid receptor blockers – image-based, SAR follow-up (AID 2357)", "format": "functional"}, "[6]": {"target": "T2, Kappa-type opioid receptor", "test": "kappa opioid receptor blockers, cell-based, luminescence, beta-arrestin, SAR follow-up (AID 2285)", "format": "functional"}, "[7]": {"target": "T3, Delta-type opioid receptor", "test": "DOR agonists, SAR follow-up, image-based (AID 2370)", "format": "functional"}, "[8]": {"target": "T4, Histone-lysine N-methyltransferase NSD2 (Homo sapiens, UniProt O96028)", "T4 sequence (O96028 whole entry)": "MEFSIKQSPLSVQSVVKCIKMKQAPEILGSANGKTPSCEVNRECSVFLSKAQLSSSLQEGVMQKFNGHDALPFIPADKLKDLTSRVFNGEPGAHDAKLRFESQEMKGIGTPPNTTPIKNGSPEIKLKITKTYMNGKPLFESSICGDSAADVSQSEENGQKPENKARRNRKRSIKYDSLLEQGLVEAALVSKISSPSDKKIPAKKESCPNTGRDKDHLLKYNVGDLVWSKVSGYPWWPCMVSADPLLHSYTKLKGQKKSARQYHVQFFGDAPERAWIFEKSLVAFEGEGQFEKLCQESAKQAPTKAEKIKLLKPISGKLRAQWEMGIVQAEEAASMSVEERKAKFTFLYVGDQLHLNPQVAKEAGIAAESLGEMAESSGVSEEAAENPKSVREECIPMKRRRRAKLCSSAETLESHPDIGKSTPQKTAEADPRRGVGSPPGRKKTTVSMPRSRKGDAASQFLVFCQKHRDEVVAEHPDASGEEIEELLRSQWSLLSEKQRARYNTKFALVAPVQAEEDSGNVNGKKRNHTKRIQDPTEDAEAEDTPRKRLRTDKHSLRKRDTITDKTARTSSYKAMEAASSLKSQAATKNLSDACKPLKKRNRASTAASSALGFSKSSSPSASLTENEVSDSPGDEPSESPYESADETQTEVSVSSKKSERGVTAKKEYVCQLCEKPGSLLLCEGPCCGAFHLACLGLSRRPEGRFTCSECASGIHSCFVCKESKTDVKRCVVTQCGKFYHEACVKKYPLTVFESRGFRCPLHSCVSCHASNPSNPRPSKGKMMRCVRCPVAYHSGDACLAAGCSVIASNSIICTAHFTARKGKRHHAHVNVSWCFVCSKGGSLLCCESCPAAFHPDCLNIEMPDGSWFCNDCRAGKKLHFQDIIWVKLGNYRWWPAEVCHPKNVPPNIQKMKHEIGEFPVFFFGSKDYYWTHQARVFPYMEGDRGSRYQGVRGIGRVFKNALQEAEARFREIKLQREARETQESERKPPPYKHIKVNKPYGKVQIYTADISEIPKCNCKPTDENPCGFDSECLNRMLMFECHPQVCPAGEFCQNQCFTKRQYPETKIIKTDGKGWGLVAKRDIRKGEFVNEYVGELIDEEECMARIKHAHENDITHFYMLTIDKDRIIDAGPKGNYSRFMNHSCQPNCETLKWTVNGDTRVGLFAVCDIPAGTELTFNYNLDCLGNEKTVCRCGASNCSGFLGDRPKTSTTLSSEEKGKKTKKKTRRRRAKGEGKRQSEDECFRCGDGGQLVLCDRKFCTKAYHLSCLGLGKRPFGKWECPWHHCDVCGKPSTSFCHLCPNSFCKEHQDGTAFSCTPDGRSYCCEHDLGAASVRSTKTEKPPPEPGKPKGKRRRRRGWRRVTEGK", "format": "biochemical"}, "[9]": {"target": "T5, Alkaline phosphatase, tissue-nonspecific isozyme (Homo sapiens, UniProt P05186)", "T5 sequence (P05186 whole entry)": "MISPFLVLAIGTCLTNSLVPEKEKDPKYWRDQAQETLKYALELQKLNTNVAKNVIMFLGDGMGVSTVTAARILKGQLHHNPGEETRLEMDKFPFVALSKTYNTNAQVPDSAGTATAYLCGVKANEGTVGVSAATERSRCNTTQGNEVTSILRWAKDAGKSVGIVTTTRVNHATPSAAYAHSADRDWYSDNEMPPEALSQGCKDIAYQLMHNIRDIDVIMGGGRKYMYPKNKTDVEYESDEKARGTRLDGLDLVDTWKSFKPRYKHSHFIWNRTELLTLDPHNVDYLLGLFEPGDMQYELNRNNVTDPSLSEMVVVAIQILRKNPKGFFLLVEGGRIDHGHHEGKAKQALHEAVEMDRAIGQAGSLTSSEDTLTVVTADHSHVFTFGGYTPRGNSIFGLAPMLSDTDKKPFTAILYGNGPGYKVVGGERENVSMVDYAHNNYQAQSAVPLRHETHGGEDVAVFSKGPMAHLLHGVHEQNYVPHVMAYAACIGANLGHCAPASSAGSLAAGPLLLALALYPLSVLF", "test": "activation of tissue-nonspecific alkaline phosphatase – biochemical, TNAP isozyme, mouse IAP uHTS hits, selectivity assay for mouse IAP activator project, dose response (AID 488880)", "format": "functional"}, "ORF 73": {"target": "ORF 73 (Human herpesvirus 8, UniProt O40947)", "sequence (O40947 whole entry)": "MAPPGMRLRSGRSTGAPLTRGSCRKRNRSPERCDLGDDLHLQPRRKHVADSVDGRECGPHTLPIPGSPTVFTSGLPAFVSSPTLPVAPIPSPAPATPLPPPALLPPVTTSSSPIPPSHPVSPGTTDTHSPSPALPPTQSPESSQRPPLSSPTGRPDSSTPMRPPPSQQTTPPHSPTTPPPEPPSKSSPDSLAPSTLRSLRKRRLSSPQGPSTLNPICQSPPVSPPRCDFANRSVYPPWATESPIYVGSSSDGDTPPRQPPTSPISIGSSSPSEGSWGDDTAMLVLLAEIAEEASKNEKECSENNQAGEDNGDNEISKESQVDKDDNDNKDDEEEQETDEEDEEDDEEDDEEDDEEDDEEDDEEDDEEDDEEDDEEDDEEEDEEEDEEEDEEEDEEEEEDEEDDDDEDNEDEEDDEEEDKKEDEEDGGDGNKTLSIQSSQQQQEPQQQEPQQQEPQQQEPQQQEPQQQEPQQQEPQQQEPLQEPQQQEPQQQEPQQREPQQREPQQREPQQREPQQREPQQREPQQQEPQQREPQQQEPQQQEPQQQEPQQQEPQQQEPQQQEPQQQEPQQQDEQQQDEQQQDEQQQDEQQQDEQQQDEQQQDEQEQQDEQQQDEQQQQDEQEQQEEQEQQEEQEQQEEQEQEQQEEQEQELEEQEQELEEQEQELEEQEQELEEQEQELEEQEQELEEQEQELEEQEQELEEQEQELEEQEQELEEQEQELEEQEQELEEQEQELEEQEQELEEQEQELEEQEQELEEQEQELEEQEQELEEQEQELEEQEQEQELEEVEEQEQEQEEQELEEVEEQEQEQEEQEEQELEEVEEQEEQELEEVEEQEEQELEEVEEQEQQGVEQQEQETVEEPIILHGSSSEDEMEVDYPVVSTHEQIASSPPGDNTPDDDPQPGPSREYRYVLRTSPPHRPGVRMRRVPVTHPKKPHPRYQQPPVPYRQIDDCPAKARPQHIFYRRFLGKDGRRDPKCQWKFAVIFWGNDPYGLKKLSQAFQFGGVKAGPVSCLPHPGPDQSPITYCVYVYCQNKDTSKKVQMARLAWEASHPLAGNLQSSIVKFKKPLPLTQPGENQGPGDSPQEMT", "test": "KSHV LANA DNA-binding disruption – biochemical, fluorescence polarization, cherry-picked samples, dose response (AID 504725);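 further: fluorescence polarization of a labeled DNA duplex reporting LANA DNA binding; potency is for inhibitors that block LANA binding to the DNA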", "set-up": "species or system Human gammaherpesvirus 8"}, "[10]": {"target": "Intestinal-type alkaline phosphatase (Homo sapiens, UniProt P09923)", "sequence (P09923 whole entry)": "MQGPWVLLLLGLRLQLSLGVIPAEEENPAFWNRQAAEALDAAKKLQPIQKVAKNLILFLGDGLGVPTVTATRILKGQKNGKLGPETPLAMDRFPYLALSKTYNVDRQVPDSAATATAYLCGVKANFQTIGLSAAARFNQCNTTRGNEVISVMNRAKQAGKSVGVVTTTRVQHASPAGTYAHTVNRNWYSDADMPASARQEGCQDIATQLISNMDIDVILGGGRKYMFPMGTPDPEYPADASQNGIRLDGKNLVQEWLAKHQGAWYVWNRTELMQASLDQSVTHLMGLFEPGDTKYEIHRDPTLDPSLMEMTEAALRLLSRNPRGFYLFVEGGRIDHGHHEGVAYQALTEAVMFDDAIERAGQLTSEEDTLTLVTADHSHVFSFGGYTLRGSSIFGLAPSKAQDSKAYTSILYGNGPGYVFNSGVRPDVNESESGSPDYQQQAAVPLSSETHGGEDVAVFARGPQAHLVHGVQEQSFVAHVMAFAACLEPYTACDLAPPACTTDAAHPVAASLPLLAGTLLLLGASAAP", "test": "activation of human intestinal alkaline phosphatase – biochemical, dose response (AID 488873)", "format": "functional"}, "[11]": {"target": "T6, Rac GTPase-activating protein 1 (Homo sapiens, UniProt Q9H0H5)", "T6 sequence (Q9H0H5 whole entry)": "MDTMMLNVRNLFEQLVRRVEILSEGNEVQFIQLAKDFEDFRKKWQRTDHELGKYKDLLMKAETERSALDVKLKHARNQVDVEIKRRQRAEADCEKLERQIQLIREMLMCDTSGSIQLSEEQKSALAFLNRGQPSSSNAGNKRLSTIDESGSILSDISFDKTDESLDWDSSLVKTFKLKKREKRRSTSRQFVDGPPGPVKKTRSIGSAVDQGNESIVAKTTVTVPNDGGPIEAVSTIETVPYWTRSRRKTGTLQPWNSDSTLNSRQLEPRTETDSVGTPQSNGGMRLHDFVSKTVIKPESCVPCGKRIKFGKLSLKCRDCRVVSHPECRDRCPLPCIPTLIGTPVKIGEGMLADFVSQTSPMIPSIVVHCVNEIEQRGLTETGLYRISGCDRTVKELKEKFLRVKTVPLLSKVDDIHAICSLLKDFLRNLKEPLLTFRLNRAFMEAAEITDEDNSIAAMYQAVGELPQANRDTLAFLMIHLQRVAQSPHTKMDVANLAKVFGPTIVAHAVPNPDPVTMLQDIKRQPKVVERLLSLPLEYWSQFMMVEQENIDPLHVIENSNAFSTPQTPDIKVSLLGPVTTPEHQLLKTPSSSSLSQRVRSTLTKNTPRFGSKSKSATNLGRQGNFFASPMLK", "test": "blockers of MgcRacGAP-driven Rac1 GTP hydrolysis – biochemical, ADP Hunter fluorescence, primary and confirmatory, confirmation (AID 624330)", "format": "functional"}, "Large T antigen": {"target": "Large T antigen (Simian virus 40, UniProt P03070)", "sequence (P03070 whole entry)": "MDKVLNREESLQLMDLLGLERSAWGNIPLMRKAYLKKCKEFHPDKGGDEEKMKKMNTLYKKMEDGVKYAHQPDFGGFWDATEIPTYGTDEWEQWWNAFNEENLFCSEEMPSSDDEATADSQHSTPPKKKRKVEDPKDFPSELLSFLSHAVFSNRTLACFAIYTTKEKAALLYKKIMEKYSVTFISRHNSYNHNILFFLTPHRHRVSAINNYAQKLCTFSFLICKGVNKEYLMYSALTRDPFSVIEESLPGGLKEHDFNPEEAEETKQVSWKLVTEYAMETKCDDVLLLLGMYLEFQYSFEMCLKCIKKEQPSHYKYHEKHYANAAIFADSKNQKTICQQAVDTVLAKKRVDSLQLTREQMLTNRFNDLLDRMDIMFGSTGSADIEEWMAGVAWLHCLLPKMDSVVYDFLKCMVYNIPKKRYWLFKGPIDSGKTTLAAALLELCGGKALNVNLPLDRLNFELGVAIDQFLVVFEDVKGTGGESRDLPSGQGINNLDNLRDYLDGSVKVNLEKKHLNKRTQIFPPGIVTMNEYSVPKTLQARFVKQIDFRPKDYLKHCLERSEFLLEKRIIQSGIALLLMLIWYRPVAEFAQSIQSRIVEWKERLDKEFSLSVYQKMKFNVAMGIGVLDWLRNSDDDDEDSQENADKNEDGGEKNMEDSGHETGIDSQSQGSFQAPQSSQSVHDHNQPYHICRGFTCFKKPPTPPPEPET", "format": "functional, Betapolyomavirus macacae"}, "[12]": {"target": "Intestinal-type alkaline phosphatase (Mus musculus, UniProt P24822)", "sequence (P24822 whole entry)": "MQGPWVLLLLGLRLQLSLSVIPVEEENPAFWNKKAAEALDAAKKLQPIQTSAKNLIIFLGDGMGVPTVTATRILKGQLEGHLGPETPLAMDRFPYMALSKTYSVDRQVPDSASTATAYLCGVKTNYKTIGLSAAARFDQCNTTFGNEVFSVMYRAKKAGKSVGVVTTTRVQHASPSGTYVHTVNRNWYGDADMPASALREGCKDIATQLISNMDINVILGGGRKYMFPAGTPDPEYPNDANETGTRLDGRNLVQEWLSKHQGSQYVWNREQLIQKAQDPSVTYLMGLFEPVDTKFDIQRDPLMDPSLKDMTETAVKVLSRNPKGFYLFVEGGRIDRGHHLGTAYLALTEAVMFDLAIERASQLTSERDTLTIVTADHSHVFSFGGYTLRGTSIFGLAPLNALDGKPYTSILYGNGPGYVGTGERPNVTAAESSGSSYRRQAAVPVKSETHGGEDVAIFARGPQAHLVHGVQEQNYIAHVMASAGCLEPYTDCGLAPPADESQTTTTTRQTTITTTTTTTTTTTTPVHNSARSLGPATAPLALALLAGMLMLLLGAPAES", "test": "mouse intestinal alkaline phosphatase activators, dose response, biochemical, luminescence, uHTS hits (AID 488783)", "format": "functional"}, "[13]": {"target": "T3, Delta-type opioid receptor", "test": "SAR Analysis of Agonists of the DOR Receptor using an Image-Based Assay - Set 3. [Related pubchem assays (depositor defined):AID1777, AID1786]", "format": "functional"}, "[14]": {"target": "T2, Kappa-type opioid receptor", "test": "SAR analysis of small molecule agonists of the kappa opioid receptor via a luminescent beta-arrestin assay - Set 3. [Related pubchem assays (depositor defined):AID1777, AID1785, AID1786, AID1966, AID2133, AID2136, AID2284, AID2500]", "format": "functional"}, "Mu-type opioid receptor [15]": {"target": "T1, Mu-type opioid receptor", "test": "SAR Analysis of Agonists of the MOR Receptor using an Image-Based Assay - Set 3. [Related pubchem assays (depositor defined):AID1777, AID1785, AID1786, AID1966, AID2133, AID2136, AID2284, AID2285, AID2352]", "format": "functional"}, "[16]": {"target": "T2, Kappa-type opioid receptor", "test": "kappa opioid receptor activation by imaging – image-based, set 3, SAR follow-up (AID 488833)", "format": "functional"}}, "note": "Calls of active or inactive are those of the source."}
{"smiles": "COc1ccc(N2CCN(CCCNC(=O)Cn3c(=O)c4cccn4c4ccccc43)CC2)cc1", "values": [{"measurement": "IC50", "setting": "Mu-type opioid receptor [1]", "value": "> 32 µM (inactive)"}, {"measurement": "IC50", "setting": "[2]", "value": "15.3 µM (inactive)"}, {"measurement": "EC50", "setting": "Mu-type opioid receptor [3]", "value": "> 32 µM (inactive)"}, {"measurement": "EC50", "setting": "[4]", "value": "> 32 µM (inactive)"}, {"measurement": "IC50", "setting": "[5]", "value": "> 32 µM (inactive)"}, {"measurement": "IC50", "setting": "[6]", "value": "4.32 µM (active)"}, {"measurement": "EC50", "setting": "[7]", "value": "> 32 µM (inactive)"}]}
{"smiles": "N=C1/C(=C/c2ccc(O)c(O)c2)C(=O)N=C2SC(CC(=O)N3CCCC3)=NN12", "values": [{"measurement": "AC50", "setting": "[8]", "value": "3.26 µM (active)"}, {"measurement": "EC50", "setting": "[9]", "value": "9.2 µM (active)"}, {"measurement": "AC50", "setting": "ORF 73", "value": "161 µM (active)"}, {"measurement": "EC50", "setting": "[10]", "value": "9.7 µM (active)"}, {"measurement": "IC50", "setting": "[11]", "value": "66 µM (active)"}, {"measurement": "IC50", "setting": "Large T antigen", "value": "7.22 µM (active)"}, {"measurement": "EC50", "setting": "[12]", "value": "100 µM (inactive)"}]}
{"smiles": "COc1cccc(CSc2nnc(-c3ccccn3)n2Cc2ccco2)c1", "values": [{"measurement": "EC50", "setting": "[13]", "value": "> 64 µM (inactive)"}, {"measurement": "EC50", "setting": "[14]", "value": "15.3 µM (inactive)"}, {"measurement": "EC50", "setting": "Mu-type opioid receptor [15]", "value": "> 32 µM (inactive)"}, {"measurement": "EC50", "setting": "[16]", "value": "> 32 µM (inactive)"}]}
